The record followed here is patent US20240360194A1, “New Peptides as Potent and Selective GIP Receptor Agonists” (Sanofi, priority 2021, published 2024).

In one data set the test system is C57Bl/6 mice. The data set is described as follows: Acute effects after s.c. treatment on blood glucose in an intraperitoneal glucose tolerance test (ipGTT). The note with it: for Blood glucose concentration AUC / Incremental blood glucose concentration AUCi: Example 13 study, mean ± SEM; for Blood glucose concentration AUC: vehicle 23.20; for Incremental blood glucose concentration AUCi: baseline corrected, vehicle 5.50. It is filed as in vivo, male C57Bl/6NCrl mice. From the text: Acute Effects after Subcutaneous (s.c.) Treatment on Blood Glucose in an Intraperitoneal (i.p.) Glucose Tolerance Test (ipGTT) in Healthy, Male C57Bl/6 Mice
Healthy, normoglycemic male C57Bl/6NCrl mice were ordered in an age of 9-10 weeks with an approximate body weight (BW) of 24-26 g at Charles River Laboratories Deutschland GmbH, 97633 Sulzfeld, Germany. Mice were shipped grouped housed (N=4 per cage), acclimatized for one week and remained grouped housed throughout the entire study. Mice were housed under vivarium conditions that included a 12 h light/dark cycle (light phase 06:00 AM-06:00 PM), mean room temperature of 22±2° C. and a relative mean humidity of 55±10%. All animals had free access to food (Ssniff R/M-H diet) and water prior to study start. At study start mice were between 10-11 weeks old.
The primary objective of the study was to investigate the compound-induced lowering of the blood glucose excursion and improvement of glucose tolerance in a mouse ipGTT setting and therefore the primary parameters included blood glucose, delta blood glucose (normalized to the time point just prior to the i.p. glucose challenge, t=0 h) and their respective calculated area under curve (AUC) values. The study was performed as an acute, single dosing study with 6 groups and the male animals were randomly divided to groups of 7-8 mice per group. Dose-dependent pharmacodynamic blood glucose lowering efficacy of the GIPR agonist was analyzed with s.c. injections 6 h before the i.p. glucose load in the dose range from 3 up to 100 nmol/kg and compared to the vehicle group as well as the semaglutide positive control at a dose of 10 nmol/kg.
In more detail, mice were fed overnight and on the following morning brought to the lab with food removed but ad libitum access to water. Blood samplings (5 μl) were performed at: −6.5, −0.5, 0, 0.17, 0.5, 1, 1.5, 2 and 3 h before and after the glucose bolus of 1 g glucose per kg BW i.p. given at time point t=0 h. On time point t=0.17 h an additional K-EDTA plasma sample from 60-80 μl blood was taken for plasma insulin analysis. Blood was withdrawn from the tip of the tail. The GIPR agonist and semaglutide were dissolved in 10 mM phosphate buffer pH 7.4 with 2.3% glycerol and 0.01% polysorbat 20 (vehicle) and s.c. treatment was performed −6 h before the glucose load (t=0 h) using an injection volume of 5 ml/kg. The injection solutions were freshly prepared prior to the experiment using sterile filtered vehicle solution. Blood glucose was determined enzymatically (Gluco-quant® Glucose/HK kit on Roche/Hitachi 912). Plasma insulin was determined using a mouse/rat insulin sandwich immunoassay kit from Meso Scale Discovery.
All data were collected using Microsoft Excel. None of the data were collected online. The results are expressed as means±standard error of the mean (SEM). As primary study parameters, blood glucose, baseline (time point t=0 h) subtracted delta blood glucose and their respective calculated area under curve (AUC) values were determined.
The statistical analysis of the ipGTT blood glucose excursion data response following subcutaneous compound or vehicle treatment was performed on the calculated AUC values of blood glucose raw data as well as the calculated AUC values for baseline subtracted delta blood glucose data. In a first step the Levene's test was used to test for equality of variances between groups. […] Where Levene's test was not significant (p>0.05) ANOVA was conducted without prior rank transformation. In a second step a One-way ANOVA analysis for factor treatment followed by Dunnett's multiple comparisons test vs. vehicle group was used to test for statistical differences. All analyses were performed using SAS (version 9.4) under Linux via the interface software EverSt@t V6.1.
Male C57Bl/6NCrl mice were fed overnight and on the following morning brought to the lab with food removed but adlibitum access to water. […]

A short description of data set [1]: Pharmacokinetic evaluation in mice. In kind it is in vivo, female C57Bl/6 mice. The note with it: female, C57Bl/6, mouse, plasma, mice; for AUC(0-t): read-out: AUClast; for Cmax: read-out: Cmax; for half-life: read-out: T1/2 (converted). As for the experimental part: Compounds were administered in a suitable buffer system, e.g. PBS buffer solution at pH7.4 or DPBS solution at concentrations of 0.05, 0.1, 0.5 or 1 mg/ml depending on dose, species and administration volume. Female C57Bl/6 mice were dosed 0.25 mg/kg, 0.5 mg/kg or 1 mg/kg intravenously (i.v.) or subcutaneously (s.c.). The mice were sacrificed, and blood samples were collected after 0.08, 0.25, 0.5, 1, 2, 4, 8, 24, 32, and 48 h post i.v. application and 0.25, 0.5, 1, 2, 4, 8, 24, 32, and 48 h post s.c. application, respectively. Plasma samples were analysed after protein precipitation via liquid chromatography mass spectrometry (LC/MS). PK parameters and half-life were calculated using Phoenix-WinNonlin 8.1 using a non-compartmental model and linear trapezoidal interpolation calculation. Pharmacokinetic profiles were determined as described in Methods.

Read-outs that look alike come from different tables or passages of the source.

Broadly, the Cmax is the maximum level reached in the sampled fluid or tissue. Regarding `CC[C@H](C)[C@H](NC(=O)[C@H](CCCNC(=N)N)NC(=O)[C@H](CC(=O)O)NC(=O)[C@H](CCCCNC(=O)COCCOCCNC(=O)COCCOCCNC(=O)CC[C@H](NC(=O)CCCCCCCCCCCCCCCCC(=O)O)C(=O)O)NC(=O)C(C)(C)NC(=O)[C@@H](NC(=O)[C@H](CO)NC(=O)[C@H](CC(C)C)NC(=O)[C@H](CC(=O)O)NC(=O)[C@H](CO)NC(=O)[C@@H](NC(=O)[C@H](Cc1ccccc1)NC(=O)[C@@H](NC(=O)CNC(=O)[C@H](CCC(=O)O)NC(=O)C(C)(C)NC(=O)[C@@H](N)Cc1ccc(O)cc1)[C@@H](C)O)[C@@H](C)CC)[C@@H](C)CC)C(=O)N[C@@H](Cc1c[nH]cn1)C(=O)N[C@@H](CCC(N)=O)C(=O)NC(C)(C)C(=O)N[C@@H](CCC(=O)O)C(=O)N[C@@H](Cc1ccccc1)C(=O)N[C@H](C(=O)N[C@@H](CCC(=O)O)C(=O)N[C@@H](Cc1c[nH]c2ccccc12)C(=O)N[C@@H](CC(C)C)C(=O)N[C@@H](CC(C)C)C(=O)N[C@@H](C)C(=O)N[C@@H](CCC(N)=O)C(=O)N[C@@H](CCCNC(=N)N)C(=O)NCC(N)=O)[C@@H](C)CC` [SEQ ID NO: 6, H2N-Y-Aib-E-G-T-F-I-S-D-L-S-I-Aib-K[{AEEA}2-gGlu-C18OH]-D-R-I-H-Q-Aib-E-F-I-E-W-L-L-A-Q-R-G-NH2], the “Blood glucose concentration AUC” value is given as “+21.51 ± 0.580 mmol/L* 0-2 h” in the data set with C57Bl/6 mice (3 nmol/kg s.c. 6 h before i.p. glucose), “+19.37 ± 0.309 mmol/L* 0-2 h” in the data set with C57Bl/6 mice (10 nmol/kg s.c. 6 h before i.p. glucose), “+17.22 ± 0.453 mmol/L* 0-2 h” in the data set on C57Bl/6 mice (30 nmol/kg s.c. 6 h before i.p. glucose) and “+15.35 ± 0.308 mmol/L* 0-2 h” with C57Bl/6 mice (100 nmol/kg s.c. 6 h before i.p. glucose). Moreover, the “Incremental blood glucose concentration AUCi” value in the data set on C57Bl/6 mice (3 nmol/kg s.c.) is listed as “+3.85 ± 0.438 mmol/L* 0-2 h”; in the data set with C57Bl/6 mice (10 nmol/kg s.c.) it was “+3.84 ± 0.240 mmol/L* 0-2 h”; in the data set on C57Bl/6 mice (30 nmol/kg s.c.) it was “+2.87 ± 0.382 mmol/L* 0-2 h”; in the data set with C57Bl/6 mice (100 nmol/kg s.c.), “+1.21 ± 0.361 mmol/L* 0-2 h”. The “minimal effective dose for improvement of i.p. glucose tolerance” value in the data set with C57Bl/6 mice (single s.c. dose, C57Bl/6NCrl mice, vs. vehicle) lay within 10 to 30 nmol/kg. For the same molecule, the AUC(0-t) in data set [1] (iv, 0.25 mg/kg i.v.) was 20.8 µg·h/mL; in data set [1] (sc, 0.5 mg/kg s.c.) it was 37.5 µg·h/mL. The clearance in data set [1] (iv, 0.25 mg/kg i.v., read-out: Cl (converted)) is 0.0119 L/h/kg. Further, the Cmax in data set [1] (iv, 0.25 mg/kg i.v.) amounted to 3.47 µg/mL; in data set [1] (sc, 0.5 mg/kg s.c.), 2.39 µg/mL. Also, the half-life in data set [1] (iv, 0.25 mg/kg i.v.) is 7.9 h; in data set [1] (sc, 0.5 mg/kg s.c.), 8.21 h. In data set [1] (sc, 0.5 mg/kg s.c., read-out: F), the bioavailability is 91%.
